The values below come from patent publication US12187773B2, “Modified GIP peptide analogues” (Antag Therapeutics ApS, priority 2018, dated 2025).

Common to all, as to type: cell-based
For assay [1], the target named is T1, human GIP receptor (Homo sapiens, UniProt P48546).
T1 sequence (P48546 22-466): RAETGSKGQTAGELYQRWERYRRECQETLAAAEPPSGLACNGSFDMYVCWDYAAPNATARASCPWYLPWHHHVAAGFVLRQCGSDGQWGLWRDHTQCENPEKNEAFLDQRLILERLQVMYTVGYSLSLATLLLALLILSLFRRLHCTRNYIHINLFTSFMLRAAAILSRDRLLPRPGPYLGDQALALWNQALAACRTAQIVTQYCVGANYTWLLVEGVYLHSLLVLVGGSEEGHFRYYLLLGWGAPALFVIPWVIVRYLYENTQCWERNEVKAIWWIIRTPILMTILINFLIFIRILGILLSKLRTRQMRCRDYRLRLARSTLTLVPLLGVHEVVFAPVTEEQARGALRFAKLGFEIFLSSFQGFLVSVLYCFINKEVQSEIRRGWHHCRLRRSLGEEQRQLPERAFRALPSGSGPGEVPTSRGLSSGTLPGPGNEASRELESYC
As to the kind of experiment: cAMP antagonism (CisBio cAMP Dynamic 2 HTRF assay). Details: pCMV-Script vector. The following applies: Table 1C, CisBio, HEK-293 cells; for IC50: cAMP antagonism, nM (IC50), agonist GIP1-42 at EC50. The procedure, abridged: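 Four-parameter fits of cAMP dose-response gave pIC50. cAMP fall was quantified by HTRF competition, ratio 665/620 nm after 60 min at room temperature, against a cAMP standard curve.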
A general note: Time-resolved FRET reads energy transfer from a long-lived donor to a nearby acceptor.

Assay [2] deals with T1, human GIP receptor. Kind of assay: cAMP accumulation, agonism (DiscoveRx HitHunter cAMP XS assay). Details: host or cells: COS-7 (transient, calcium phosphate; pCMV-Script vector). To be noted: for cAMP agonism, Emax: Table 1B, DiscoveRx, COS-7 cells. The procedure, abridged:
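cAMP accumulation measured by HitHunter cAMP XS in COS-7 cells transiently expressing human GIP receptor, after 30 min in HBS with 1 mM IBMX at 37 °C. Antagonists preincubated 10 min before GIP giving 50-80% of maximum, then 20 min more; agonist mode used 30 min ligand exposure.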
(Changes in cAMP serve as a functional read-out for many G protein-coupled receptors.)

In assay [3] the target is T1, human GIP receptor. As to the kind of experiment: cAMP accumulation, antagonism (DiscoveRx HitHunter cAMP XS assay). The following applies: for cAMP antagonism, % inhib: COS-7 cells, % inhibition of Emax. Set-up: host or cells: COS-7 (transient, calcium phosphate; pCMV-Script vector). The essentials:
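Transiently transfected COS-7 cells expressing human GIP receptor, pretreated with 1 mM IBMX in HBS 30 min at 37 °C. Agonism: ligand 30 min at 37 °C; antagonism: 10 min antagonist preincubation, then GIP at 50-80% maximal response for 20 min. cAMP measured by HitHunter cAMP XS.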

Assay [4] addresses T1, human GIP receptor. As to the kind of experiment: cAMP agonism (CisBio cAMP Dynamic 2 HTRF assay). To be noted: HEK293, read-out: cAMP agonism, % Efficacy, Table 1C, HEK-293 cells. The protocol:
To test for agonistic properties at the GIP receptor, compounds were diluted and added to cells as described above and incubated for 30 min at 37° C. The resulting increase in intracellular cAMP was determined using the CisBio cAMP Dynamic 2 HTRF Assay Kit as described above.

The mark [5] stands for this setting: cAMP antagonism, nM (IC50), Table 1B, DiscoveRx, transiently transfected COS-7 cells.

*1 amine or outer side, *2 acyl side, *3 side chain or, on linkers, in order; H or OH if unused. Where a SMILES comes first, the peptide text is derived from it. Side-chain parts run from the residue outwards. The star is where a group is joined. C18 diacid = O=C(O)CCCCCCCCCCCCCCCCC(=O)*; C16 diacid = O=C(O)CCCCCCCCCCCCCCC(=O)*; γGlu = O=C(O)[C@H](CCC(=O)[*:2])N[*:1]; AEEA = NCCOCCOCC(=O)O

By IC50 is commonly meant the concentration needed to halve the response being measured. On to `CC[C@H](C)[C@H](NC(=O)[C@H](CO)NC(=O)[C@H](Cc1ccc(O)cc1)NC(=O)[C@H](CC(=O)O)NC(=O)[C@H](CO)NC(=O)[C@@H](NC(=O)[C@H](Cc1ccccc1)NC(=O)[C@@H](NC(=O)CNC(=O)[C@@H]1CCCN1)[C@@H](C)O)[C@@H](C)CC)C(=O)N[C@@H](C)C(=O)N[C@@H](CCSC)C(=O)N[C@@H](CC(=O)O)C(=O)N[C@@H](CCCNC(=N)N)C(=O)N[C@H](C(=O)N[C@@H](CCCCNC(=O)COCCOCCNC(=O)CC[C@H](NC(=O)CCCCCCCCCCCCCCC(=O)O)C(=O)O)C(=O)N[C@@H](CCC(N)=O)C(=O)N[C@@H](CCC(N)=O)C(=O)N[C@@H](CC(=O)O)C(=O)N[C@@H](Cc1ccccc1)C(=O)N[C@H](C(=O)N[C@@H](CC(N)=O)C(=O)N[C@@H](Cc1c[nH]c2ccccc12)C(=O)N[C@@H](CC(C)C)C(=O)N[C@@H](CC(C)C)C(=O)N[C@@H](C)C(=O)N[C@@H](CCC(N)=O)C(=O)N[C@@H](CCCNC(=N)N)C(N)=O)C(C)C)[C@@H](C)CC` [AT512] (HELM PEPTIDE1{P.G.T.F.I.S.D.Y.S.I.A.M.D.R.I.K.Q.Q.D.F.V.N.W.L.L.A.Q.R.[am]}|PEPTIDE2{[O=C(O)CCCCCCCCCCCCCCC(=O)[*:2]].[gGlu].[O=C(COCCOCCN[*:1])[*:2]]}$PEPTIDE1,PEPTIDE2,16:R3-3:R2$$$V2.0; N-terminus assumed), for which, at human GIP receptor [1], the “cAMP antagonism, % inhib” value came to 73% and the half-maximal inhibitory concentration (IC50) is 79.4 nM. On human GIP receptor [2], the “cAMP agonism, Emax” value is “No Agonism”. In addition, on human GIP receptor [3] (Table 1B, DiscoveRx), the “cAMP antagonism, % inhib” value was found to be 80%. For the same compound, at human GIP receptor [4], the Emax stood at 0%.
For `CC[C@H](C)[C@H](NC(=O)[C@H](CO)NC(=O)[C@H](Cc1ccc(O)cc1)NC(=O)[C@H](CC(=O)O)NC(=O)[C@H](CO)NC(=O)[C@@H](NC(=O)[C@H](Cc1ccccc1)NC(=O)[C@@H](NC(=O)CNC(=O)[C@@H](N)CCC(=O)O)[C@@H](C)O)[C@@H](C)CC)C(=O)N[C@@H](C)C(=O)N[C@@H](CCSC)C(=O)N[C@@H](CC(=O)O)C(=O)N[C@@H](CCCNC(=N)N)C(=O)N[C@H](C(=O)N[C@@H](CCCCNC(=O)COCCOCCNC(=O)CC[C@H](NC(=O)CCCCCCCCCCCCCCC(=O)O)C(=O)O)C(=O)N[C@@H](CCC(N)=O)C(=O)N[C@@H](CCC(N)=O)C(=O)N[C@@H](CC(=O)O)C(=O)N[C@@H](Cc1ccccc1)C(=O)N[C@H](C(=O)N[C@@H](CC(N)=O)C(=O)N[C@@H](Cc1c[nH]c2ccccc12)C(=O)N[C@@H](CC(C)C)C(=O)N[C@@H](CC(C)C)C(=O)N[C@@H](C)C(=O)N[C@@H](CCC(N)=O)C(=O)N[C@@H](CCCNC(=N)N)C(N)=O)C(C)C)[C@@H](C)CC` [AT373] (HELM PEPTIDE1{E.G.T.F.I.S.D.Y.S.I.A.M.D.R.I.K.Q.Q.D.F.V.N.W.L.L.A.Q.R.[am]}|PEPTIDE2{[O=C(O)CCCCCCCCCCCCCCC(=O)[*:2]].[gGlu].[O=C(COCCOCCN[*:1])[*:2]]}$PEPTIDE1,PEPTIDE2,16:R3-3:R2$$$V2.0; N-terminus assumed), the “cAMP antagonism, % inhib” value on human GIP receptor [1] came to 91%; at human GIP receptor [3] (Table 1B, DiscoveRx), 94%. Also, the half-inhibitory concentration (IC50) at human GIP receptor [1] is 12.6 nM; at human GIP receptor [3] (IC50-value (GIPR antagonism), Examples 1 and 2, values of Tables 1B and 2), 10 nM. Also, on human GIP receptor [2], the “cAMP agonism, Emax” value is “No Agonism”. Moreover, the Emax on human GIP receptor [4] worked out at 0%.
With `CC[C@H](C)[C@H](NC(=O)[C@H](CO)NC(=O)[C@H](Cc1ccc(O)cc1)NC(=O)[C@H](CC(=O)O)NC(=O)[C@H](CO)NC(=O)[C@@H](NC(=O)[C@H](Cc1ccccc1)NC(=O)[C@@H](NC(=O)CNC(=O)[C@@H](N)CO)[C@@H](C)O)[C@@H](C)CC)C(=O)N[C@@H](C)C(=O)N[C@@H](CCSC)C(=O)N[C@@H](CC(=O)O)C(=O)N[C@@H](CCCNC(=N)N)C(=O)N[C@H](C(=O)N[C@@H](CCCCNC(=O)CCCCCCCCCCCCCCC(=O)O)C(=O)N[C@@H](CCC(N)=O)C(=O)N[C@@H](CCC(N)=O)C(=O)N[C@@H](CC(=O)O)C(=O)N[C@@H](Cc1ccccc1)C(=O)N[C@H](C(=O)N[C@@H](CC(N)=O)C(=O)N[C@@H](Cc1c[nH]c2ccccc12)C(=O)N[C@@H](CC(C)C)C(=O)N[C@@H](CC(C)C)C(=O)N[C@@H](C)C(=O)N[C@@H](CCC(N)=O)C(=O)N[C@@H](CCCNC(=N)N)C(=O)O)C(C)C)[C@@H](C)CC` [AT259] (H-SGTFISDYSIAMDRIK(C16 diacid)QQDFVNWLLAQR-OH; N-terminus assumed), the “cAMP antagonism, % inhib” value on human GIP receptor [1] was 72%. In addition, the 50% inhibitory concentration (IC50) worked out at 58.4 nM on human GIP receptor [1] and 19 nM on human GIP receptor [3] (setting [5]). Moreover, the Emax was found to be 20% on human GIP receptor [2] (COS-7, read-out: cAMP agonism, Emax) and 9% on human GIP receptor [4].
On to `CC[C@H](C)[C@H](NC(=O)[C@H](CO)NC(=O)[C@H](Cc1ccc(O)cc1)NC(=O)[C@H](CC(=O)O)NC(=O)[C@H](CO)NC(=O)[C@@H](NC(=O)[C@H](Cc1ccccc1)NC(=O)[C@@H](NC(=O)CNC(=O)[C@@H](N)CCC(=O)O)[C@@H](C)O)[C@@H](C)CC)C(=O)N[C@@H](C)C(=O)N[C@@H](CCSC)C(=O)N[C@@H](CC(=O)O)C(=O)N[C@@H](CCCNC(=N)N)C(=O)N[C@H](C(=O)N[C@@H](CCCCNC(=O)COCCOCCNC(=O)COCCOCCNC(=O)CC[C@H](NC(=O)CCCCCCCCCCCCCCCCC(=O)O)C(=O)O)C(=O)N[C@@H](CCC(N)=O)C(=O)N[C@@H](CCC(N)=O)C(=O)N[C@@H](CC(=O)O)C(=O)N[C@@H](Cc1ccccc1)C(=O)N[C@H](C(=O)N[C@@H](CC(N)=O)C(=O)N[C@@H](Cc1c[nH]c2ccccc12)C(=O)N[C@@H](CC(C)C)C(=O)N[C@@H](CC(C)C)C(=O)N[C@@H](C)C(=O)N[C@@H](CCC(N)=O)C(=O)N[C@@H](CCCNC(=N)N)C(N)=O)C(C)C)[C@@H](C)CC` [AT377] (H-EGTFISDYSIAMDRIK([AEEA-AEEA-γGlu-C18 diacid])QQDFVNWLLAQR-NH2; N-terminus assumed), for which the “cAMP antagonism, % inhib” value came to 90% at human GIP receptor [1] and 100% at human GIP receptor [3] (Table 1B, DiscoveRx). Besides, the “cAMP agonism, Emax” value on human GIP receptor [2] is given as “No Agonism”. Also, on human GIP receptor [3] (setting [5]), the half-maximal inhibitory concentration (IC50) came to 19 nM. In addition, the Emax on human GIP receptor [4] is 0%.
As to `CC[C@H](C)[C@H](NC(=O)[C@H](CO)NC(=O)[C@H](Cc1ccc(O)cc1)NC(=O)[C@H](CC(=O)O)NC(=O)[C@H](CO)NC(=O)[C@@H](NC(=O)[C@H](Cc1ccccc1)NC(=O)[C@@H](NC(=O)CNC(=O)[C@@H]1CCCN1)[C@@H](C)O)[C@@H](C)CC)C(=O)N[C@@H](C)C(=O)N[C@@H](CCSC)C(=O)N[C@@H](CC(=O)O)C(=O)N[C@@H](CCCNC(=N)N)C(=O)N[C@H](C(=O)N[C@@H](CCCCNC(=O)CC[C@H](NC(=O)CCCCCCCCCCCCCCC(=O)O)C(=O)O)C(=O)N[C@@H](CCC(N)=O)C(=O)N[C@@H](CCC(N)=O)C(=O)N[C@@H](CC(=O)O)C(=O)N[C@@H](Cc1ccccc1)C(=O)N[C@H](C(=O)N[C@@H](CC(N)=O)C(=O)N[C@@H](Cc1c[nH]c2ccccc12)C(=O)N[C@@H](CC(C)C)C(=O)N[C@@H](CC(C)C)C(=O)N[C@@H](C)C(=O)N[C@@H](CCC(N)=O)C(=O)N[C@@H](CCCNC(=N)N)C(N)=O)C(C)C)[C@@H](C)CC` [AT506] (HELM PEPTIDE1{P.G.T.F.I.S.D.Y.S.I.A.M.D.R.I.K.Q.Q.D.F.V.N.W.L.L.A.Q.R.[am]}|PEPTIDE2{[O=C(O)CCCCCCCCCCCCCCC(=O)[*:2]].[gGlu]}$PEPTIDE1,PEPTIDE2,16:R3-2:R2$$$V2.0; N-terminus assumed), the “cAMP antagonism, % inhib” value at human GIP receptor [1] came out at 78%; on human GIP receptor [3] (Table 1B, DiscoveRx) it was 90%. Further, the “cAMP agonism, Emax” value at human GIP receptor [2] is “No Agonism”. The IC50 on human GIP receptor [3] (setting [5]) was 91 nM. Further, on human GIP receptor [4], the Emax amounted to 5%.
